This passage reports IC50 results from patent US20250353842A1, “BICYCLIC AMINE CDK12 INHIBITORS” (Incyte Corporation, priority 2022, published 2025).

A value given as a limit tells only on which side of the number the result lay.

In this experiment the target is CDK12 complexed with Cyclin K (Homo sapiens (Human), UniProt Q9NYV4). Nature of the experiment: CDK enzymatic assay (HTRF, LANCE Ultra kinase assay). The following applies: 60 minutes pre-incubation, 1 mM ATP. It is filed as biochemical. The protocol: The following activity of the CDK enzymes in complex with their respective cyclins we assayed: CDK1 complexed with Cyclin B1; CDK2 complexed with Cyclin E1; CDK4 complexed with Cyclin D1; CDK6 complexed with Cyclin D1; CDK6 complexed with Cyclin D3; CDK9 complexed with Cyclin T1; CDK7 complexed with Cyclin H/MAT1; CDK2 complexed with Cyclin A2; CDK5 complexed with p35; CDK12 complexed with Cyclin K; CDK13 complexed with Cyclin K. These in vitro enzyme activity are assayed using homogeneous time-resolved energy transfer (HTRF), which measures phosphorylation of a peptide substrate. The LANCE® Ultra kinase assay (PerkinElmer) uses a ULight™-labeled EIF4E-binding protein 1 (THR37/46) peptide (DYSTTPGGTLFSTTPGTRI) (SEQ ID NO: 1) substrate and a Europium-labeled anti-phospho-4E-BP1 antibody (CDK2, CDK1, CDK4, CDK6, CDK9, CDK12, CDK13) or ULight™-labeled Myelin Basic Protein peptide (VTPRTPPP) (SEQ ID NO: 2) substrate and a Europium-labeled anti-phospho-MBP antibody (CDK7). Each CDK enzyme activity assays utilized human CDK co-expressed as N-terminal GST-tagged protein with its full length cyclin partner using a baculovirus expression system.
CDK12 complexed with Cyclin K, sequence (Q9NYV4 whole entry): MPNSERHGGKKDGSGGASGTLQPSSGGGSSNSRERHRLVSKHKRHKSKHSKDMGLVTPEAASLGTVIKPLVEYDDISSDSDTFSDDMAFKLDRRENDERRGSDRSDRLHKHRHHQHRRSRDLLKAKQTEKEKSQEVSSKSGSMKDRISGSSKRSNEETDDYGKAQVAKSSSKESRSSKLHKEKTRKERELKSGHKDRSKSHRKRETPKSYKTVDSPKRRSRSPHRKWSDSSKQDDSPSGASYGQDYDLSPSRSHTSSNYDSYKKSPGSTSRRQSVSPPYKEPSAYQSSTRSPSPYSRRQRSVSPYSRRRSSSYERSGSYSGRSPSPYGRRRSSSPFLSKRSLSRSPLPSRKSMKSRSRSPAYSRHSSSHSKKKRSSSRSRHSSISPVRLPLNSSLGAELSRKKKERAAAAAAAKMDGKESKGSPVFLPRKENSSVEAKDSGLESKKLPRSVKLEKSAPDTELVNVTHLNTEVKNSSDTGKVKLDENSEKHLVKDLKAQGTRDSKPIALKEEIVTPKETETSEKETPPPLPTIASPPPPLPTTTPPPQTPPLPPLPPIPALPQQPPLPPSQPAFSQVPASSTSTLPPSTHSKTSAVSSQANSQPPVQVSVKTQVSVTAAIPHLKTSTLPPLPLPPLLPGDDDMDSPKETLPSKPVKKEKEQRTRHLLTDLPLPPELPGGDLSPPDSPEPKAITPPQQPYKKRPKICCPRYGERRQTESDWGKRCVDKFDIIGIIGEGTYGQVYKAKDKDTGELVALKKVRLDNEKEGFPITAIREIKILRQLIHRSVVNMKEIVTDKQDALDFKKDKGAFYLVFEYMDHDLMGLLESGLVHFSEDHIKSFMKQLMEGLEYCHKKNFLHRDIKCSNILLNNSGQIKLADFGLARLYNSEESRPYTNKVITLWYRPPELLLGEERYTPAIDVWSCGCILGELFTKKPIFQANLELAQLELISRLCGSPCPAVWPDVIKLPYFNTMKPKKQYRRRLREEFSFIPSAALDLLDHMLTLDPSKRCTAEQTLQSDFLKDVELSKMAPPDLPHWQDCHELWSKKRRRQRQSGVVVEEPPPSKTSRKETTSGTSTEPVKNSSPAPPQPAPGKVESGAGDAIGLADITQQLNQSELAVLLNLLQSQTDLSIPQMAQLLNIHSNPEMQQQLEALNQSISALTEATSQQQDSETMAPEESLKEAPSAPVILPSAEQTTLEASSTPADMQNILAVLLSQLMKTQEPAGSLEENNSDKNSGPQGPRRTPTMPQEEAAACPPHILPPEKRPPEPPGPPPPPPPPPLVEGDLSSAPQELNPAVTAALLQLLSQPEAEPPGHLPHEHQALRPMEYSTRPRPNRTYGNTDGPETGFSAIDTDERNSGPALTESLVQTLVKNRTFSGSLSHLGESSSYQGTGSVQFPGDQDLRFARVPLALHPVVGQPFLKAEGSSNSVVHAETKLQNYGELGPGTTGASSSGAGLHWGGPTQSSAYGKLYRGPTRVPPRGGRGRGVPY
CDK12 complexed with Cyclin K, sequence (O75909 whole entry partner): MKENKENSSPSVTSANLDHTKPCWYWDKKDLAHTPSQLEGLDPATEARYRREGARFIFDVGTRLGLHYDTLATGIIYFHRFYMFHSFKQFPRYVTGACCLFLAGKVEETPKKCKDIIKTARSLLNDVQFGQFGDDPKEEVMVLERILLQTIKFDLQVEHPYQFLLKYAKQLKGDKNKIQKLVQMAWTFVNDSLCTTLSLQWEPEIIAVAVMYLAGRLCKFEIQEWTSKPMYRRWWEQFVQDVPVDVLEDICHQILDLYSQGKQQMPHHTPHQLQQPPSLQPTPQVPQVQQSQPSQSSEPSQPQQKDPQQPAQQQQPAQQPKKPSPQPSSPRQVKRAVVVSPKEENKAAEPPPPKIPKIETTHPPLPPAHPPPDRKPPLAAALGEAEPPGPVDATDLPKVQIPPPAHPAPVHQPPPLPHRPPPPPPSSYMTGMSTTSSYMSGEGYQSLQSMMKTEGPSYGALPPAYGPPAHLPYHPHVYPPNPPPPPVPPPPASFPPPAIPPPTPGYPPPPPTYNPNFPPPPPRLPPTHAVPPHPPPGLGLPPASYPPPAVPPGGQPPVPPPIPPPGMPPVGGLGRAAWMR
Enzyme was pre-incubated with compounds for 30 minutes (CDK1,2,4,6,9) or 60 minutes (CDK7, CDK12, CDK13) prior to addition of ATP and Ulight-peptide (1 mM and 50 nM final, respectively), in assay buffer containing 50 mM HEPES pH 7.5, 1 mM EGTA, 10 mM MgCl2, 2 mM DTT, 0.05 mg/mL BSA, and 0.01% Tween 20.
The reaction was then incubated for 60-90 minutes at room temperature. The reactions were stopped by the addition of EDTA and Europium labeled antibody, for a final concentration of 15 mM and 1.0-1.5 nM, respectively. HTRF signals were read after 15-120 minutes. A ratio of fluorescence transferred to the labeled substrate (665 nm) relative to fluorescence of the Europium donor (620 nm) represents the extent of phosphorylation. Ratios for treated wells were normalized to DMSO only (100% activity) and no enzyme (0% activity) controls. Normalized data was analyzed using a three or four parameter dose response curve to determine IC50 for each compound and are shown in Table A. Control reference inhibitors were included on each plate.
(In general: Time-resolved FRET reads energy transfer from a long-lived donor to a nearby acceptor.)
On to `N#Cc1cnc2c(c1)ncn2[C@H]1CCC[C@@H](Nc2ncc(C#N)c(-c3cnn(CC(F)F)c3)n2)C1` [9/9A, 3-((1S,3R)-3-((5-Cyano-4-(1-(2,2-difluoroethyl)-1H-pyrazol-4-yl)pyrimidin-2-yl)amino)cyclohexyl)-3H-imidazo[4,5-b]pyridine-6-carbonitrile], for which the IC50 (in general, the midpoint of a concentration-inhibition curve) is less than 50 nM. `N#Cc1cnc(N[C@@H]2CCC[C@H](n3cnc4cccc(C#N)c43)C2)nc1-c1cnn(CC(F)F)c1` [13/13A, 1-((1S,3R)-3-((5-Cyano-4-(1-(2,2-difluoroethyl)-1H-pyrazol-4-yl)pyrimidin-2-yl)amino)cyclohexyl)-1H-benzo[d]imidazole-7-carbonitrile]: the IC50 was less than 50 nM. `Cc1c(-c2nc(N[C@@H]3CCC[C@H](n4cnc5cc(C#N)cnc54)C3)ncc2C#N)nnn1C` [28/28A, 3-((1S,3R)-3-((5-Cyano-4-(1,5-dimethyl-1H-1,2,3-triazol-4-yl)pyrimidin-2-yl)amino)cyclohexyl)-3H-imidazo[4,5-b]pyridine-6-carbonitrile] had an IC50 of less than 50 nM.

Consider `N#Cc1cnc2c(c1)ncn2[C@H]1CCC[C@@H](Nc2ncc(C(F)(F)F)c(-c3cnn(CC(F)F)c3)n2)C1` [Example 1, 3-((1S,3R)-3-((4-(1-(2,2-Difluoroethyl)-1H-pyrazol-4-yl)-5-(trifluoromethyl)pyrimidin-2-yl)amino)cyclohexyl)-3H-imidazo[4,5-b]pyridine-6-carbonitrile], for which the IC50 is less than 50 nM.

Regarding `N#Cc1cnc2c(c1)ncn2[C@H]1CC[C@@H](Nc2ncc(C(F)(F)F)c(-c3cnn(CC(F)F)c3)n2)C1` [Example 2, 3-((1S,3R)-3-((4-(1-(2,2-Difluoroethyl)-1H-pyrazol-4-yl)-5-(trifluoromethyl)pyrimidin-2-yl)amino)cyclopentyl)-3H-imidazo[4,5-b]pyridine-6-carbonitrile], the IC50 was greater than 500 nM.

`N#Cc1cnc(N[C@@H]2CCC[C@H](n3cnc4ccccc43)C2)nc1-c1cnn(CC(F)F)c1` [Example 3, 2-(((1R,3S)-3-(1H-Benzo[d]imidazol-1-yl)cyclohexyl)amino)-4-(1-(2,2-difluoroethyl)-1H-pyrazol-4-yl)pyrimidine-5-carbonitrile] returned an IC50 of less than 50 nM. `FC(F)Cn1cc(-c2nc(N[C@@H]3CCC[C@H](n4cnc5cc(C(F)(F)F)cnc54)C3)ncc2C(F)(F)F)cn1` [Example 4, 4-(1-(2,2-Difluoroethyl)-1H-pyrazol-4-yl)-5-(trifluoromethyl)-N-((1R,3S)-3-(6-(trifluoromethyl)-3H-imidazo[4,5-b]pyridin-3-yl)cyclohexyl)pyrimidin-2-amine] yielded an IC50 of less than 50 nM. Next, `COC(=O)c1ccc2ncn([C@H]3CCC[C@@H](Nc4ncc(C(F)(F)F)c(-c5cnn(CC(F)F)c5)n4)C3)c2n1` [Example 5, Methyl 3-((1S,3R)-3-((4-(1-(2,2-difluoroethyl)-1H-pyrazol-4-yl)-5-(trifluoromethyl)pyrimidin-2-yl)amino)cyclohexyl)-3H-imidazo[4,5-b]pyridine-5-carboxylate]: less than 50 nM; `COc1ccc2ncn([C@H]3CCC[C@@H](Nc4ncc(C(F)(F)F)c(-c5cnn(CC(F)F)c5)n4)C3)c2n1` [Example 6, 4-(1-(2,2-Difluoroethyl)-1H-pyrazol-4-yl)-N-((1R,3S)-3-(5-methoxy-3H-imidazo[4,5-b]pyridin-3-yl)cyclohexyl)-5-(trifluoromethyl)pyrimidin-2-amine]: less than 50 nM; `FC(F)Cn1cc(-c2nc(N[C@@H]3CCC[C@H](n4cnc5cnccc54)C3)ncc2C(F)(F)F)cn1` [Example 7, N-((1R,3S)-3-(1H-Imidazo[4,5-c]pyridin-1-yl)cyclohexyl)-4-(1-(2,2-difluoroethyl)-1H-pyrazol-4-yl)-5-(trifluoromethyl)pyrimidin-2-amine]: less than 50 nM.

In the case of `Cc1ccnc2c1ncn2[C@H]1CCC[C@@H](Nc2ncc(C#N)c(-c3cnn(CC(F)F)c3)n2)C1` [Example 8, 4-(1-(2,2-Difluoroethyl)-1H-pyrazol-4-yl)-2-(((1R,3S)-3-(7-methyl-3H-imidazo[4,5-b]pyridin-3-yl)cyclohexyl)amino)pyrimidine-5-carbonitrile], the IC50 was less than 50 nM.

`N#Cc1cnc(N[C@@H]2CCC[C@H](n3cnc4cccnc43)C2)nc1-c1cnn(CC(F)F)c1` [Example 11, 2-(((1R,3S)-3-(3H-Imidazo[4,5-b]pyridin-3-yl)cyclohexyl)amino)-4-(1-(2,2-difluoroethyl)-1H-pyrazol-4-yl)pyrimidine-5-carbonitrile] yielded a 50% inhibitory concentration (IC50) of less than 50 nM. Next, `FC(F)Cn1cc(-c2nc(N[C@@H]3CCC[C@H](n4cnc5cccnc54)C3)ncc2C(F)(F)F)cn1` [Example 12, N-((1R,3S)-3-(3H-Imidazo[4,5-b]pyridin-3-yl)cyclohexyl)-4-(1-(2,2-difluoroethyl)-1H-pyrazol-4-yl)-5-(trifluoromethyl)pyrimidin-2-amine]: less than 50 nM; `N#Cc1cnc2c(c1)ncn2[C@H]1CCC[C@@H](Nc2ncc(Cl)c(-c3cnn(CC(F)F)c3)n2)C1` [Example 14, 3-((1S,3R)-3-((5-Chloro-4-(1-(2,2-difluoroethyl)-1H-pyrazol-4-yl)pyrimidin-2-yl)amino)cyclohexyl)-3H-imidazo[4,5-b]pyridine-6-carbonitrile]: less than 50 nM. Next, `N#Cc1cnc2c(ccn2[C@H]2CCC[C@@H](Nc3ncc(C(F)(F)F)c(-c4cnn(CC(F)F)c4)n3)C2)c1` [Example 15, 1-((1S,3R)-3-((4-(1-(2,2-Difluoroethyl)-1H-pyrazol-4-yl)-5-(trifluoromethyl)pyrimidin-2-yl)amino)cyclohexyl)-1H-pyrrolo[2,3-b]pyridine-5-carbonitrile]: less than 50 nM; `N#Cc1ccc2c(ccn2[C@H]2CCC[C@@H](Nc3ncc(C(F)(F)F)c(-c4cnn(CC(F)F)c4)n3)C2)c1` [Example 16, 1-((1S,3R)-3-((4-(1-(2,2-Difluoroethyl)-1H-pyrazol-4-yl)-5-(trifluoromethyl)pyrimidin-2-yl)amino)cyclohexyl)-1H-indole-5-carbonitrile]: 50 to 500 nM; `Cc1c(-c2nc(N[C@@H]3CCC[C@H](n4cnc5cccnc54)C3)ncc2C#N)cnn1C` [Example 17, 2-(((1R,3S)-3-(3H-Imidazo[4,5-b]pyridin-3-yl)cyclohexyl)amino)-4-(1,5-dimethyl-1H-pyrazol-4-yl)pyrimidine-5-carbonitrile]: 50 to 500 nM. Next, `N#Cc1cnc(N[C@@H]2CCC[C@H](n3cnc4cccnc43)C2)nc1-c1cnn2c1CCC2` [Example 18, 2-(((1R,3S)-3-(3H-Imidazo[4,5-b]pyridin-3-yl)cyclohexyl)amino)-4-(5,6-dihydro-4H-pyrrolo[1,2-b]pyrazol-3-yl)pyrimidine-5-carbonitrile]: less than 50 nM; `Cc1nn(C)cc1-c1nc(N[C@@H]2CCC[C@H](n3cnc4cccnc43)C2)ncc1C#N` [Example 19, 2-(((1R,3S)-3-(3H-Imidazo[4,5-b]pyridin-3-yl)cyclohexyl)amino)-4-(1,3-dimethyl-1H-pyrazol-4-yl)pyrimidine-5-carbonitrile]: greater than 500 nM; `Cn1ncc(-c2nc(N[C@@H]3CCC[C@H](n4cnc5cccnc54)C3)ncc2C#N)c1C#N` [Example 20, 2-(((1R,3S)-3-(3H-Imidazo[4,5-b]pyridin-3-yl)cyclohexyl)amino)-4-(5-cyano-1-methyl-1H-pyrazol-4-yl)pyrimidine-5-carbonitrile]: 50 to 500 nM. `N#Cc1cnc(N[C@@H]2CCC[C@H](n3cnc4cccnc43)C2)nc1-c1c[nH]nc1C1CC1` [Example 21, 2-(((1R,3S)-3-(3H-Imidazo[4,5-b]pyridin-3-yl)cyclohexyl)amino)-4-(3-cyclopropyl-1H-pyrazol-4-yl)pyrimidine-5-carbonitrile] came in with an IC50 of less than 50 nM. On to `Cn1nccc1-c1nc(N[C@@H]2CCC[C@H](n3cnc4cccnc43)C2)ncc1C#N` [Example 22, 2-(((1R,3S)-3-(3H-Imidazo[4,5-b]pyridin-3-yl)cyclohexyl)amino)-4-(1-methyl-1H-pyrazol-5-yl)pyrimidine-5-carbonitrile], for which the IC50 is greater than 500 nM.

For the molecule `Cn1ncc(-c2nc(N[C@@H]3CCC[C@H](n4cnc5cccnc54)C3)ncc2C#N)c1C(F)(F)F` [Example 23, 2-(((1R,3S)-3-(3H-Imidazo[4,5-b]pyridin-3-yl)cyclohexyl)amino)-4-(1-methyl-5-(trifluoromethyl)-1H-pyrazol-4-yl)pyrimidine-5-carbonitrile], the IC50 lay within 50 to 500 nM. Next, `CCn1cc(-c2nc(N[C@@H]3CCC[C@H](n4cnc5cccnc54)C3)ncc2C#N)cn1` [Example 24, 2-(((1R,3S)-3-(3H-Imidazo[4,5-b]pyridin-3-yl)cyclohexyl)amino)-4-(1-ethyl-1H-pyrazol-4-yl)pyrimidine-5-carbonitrile]: less than 50 nM.
